“Also recorded” adds a separate entry of the source.

Experiment [1] has as its system interstitial cystitis. As to conditions: clinical case studies for IC; cited from earlier work.
For experiment [2], the system named is NGF-induced bladder hyper-reflexia. As to conditions: rats; systemic administration; cited from earlier work.
The test system of experiment [3] is interstitial cystitis. As to conditions: patients with IC; oral therapy; cited from earlier work.
The test system of experiment [4] is severe IC. To be noted: patients with severe IC; intravesical DMSO; cited from earlier work.
The subject of experiment [5] is LPS-induced cystitis. The experiment in a line: Local bladder inflammation model, Example 2 (instillation), intravital microscopy of the bladder. The experiment is classed as in vivo, female BALB/c mice. To be noted: LPS 150 μg/ml instilled 30 min, then instillation, BCP 100 mg/kg; for leukocyte rolling in bladder venules: FIG. 10; for leukocyte adhesion in bladder venules: FIGS. 9 and 12; for capillary perfusion quantified through functional capillary density (FCD): FIGS. 11 and 13.

For experiment [6], the system named is LPS-induced cystitis. As to the kind of experiment: Local (endotoxin-induced) bladder inflammation model, Example 1, intravital microscopy of the bladder. As to conditions: LPS 100 μg/ml instilled 30 min, then drug instillation (DMSO 40%).
For experiment [7], the system named is LPS-induced cystitis. The experiment in a line: Electronic von Frey aesthesiometry, Example 5. The experiment is classed as in vivo, female BALB/c mice. As to conditions: oral BCP 100 mg/kg 60 minutes prior to LPS; T0 vs T1; FIG. 26. On the procedure:
(§1) Studies were carried out to investigate the anesthetic effect of oral administration of Beta-C. Animals and local bladder inflammation model were as described hereinabove in Example 2. The groups were as follows:
(§2) In the oral gavage groups, the mice were treated with 100 mg/kg beta-C by gavage. In the LPS group administered oral beta-C, the administration was 60 minutes prior to LPS exposure. LPS (local) was provided as detailed hereinabove in Example 2.
This was a quantified pain assessment that measures the amount of force applied in grams, before an animal reacts (e.g. withdraws) to the noxious stimulus. This quantification allows for accurate detection of pain relief effectiveness of a treatment. Healthy animals were scored before any treatments or cystitis induction to set an individual baseline for each specimen. The animals were also scored after the cystitis was induced and the treatment effect could be measured. Each individual animal was compared to itself before the induction, as well as a summarized group comparison was performed.

Experiment [8] has as its system LPS-induced cystitis. As to the kind of experiment: Local bladder inflammation model, Example 4 (oral Beta-C alone or with MSM), intravital microscopy. Type of experiment: in vivo, female BALB/c mice. To be noted: for leukocyte adhesion in bladder venules: FIGS. 14, 16; for capillary perfusion quantified through functional capillary density (FCD): FIGS. 15, 17. On the procedure: Laparotomy was then performed to gain access to the bladder and to have a visual confirmation of bladder instillation success. […] This was then followed by an insertion of a P10 catheter into the urethra. […] LPS solution (150 μg/ml) was slowly instilled and held in the bladder for 30 minutes. The animal was then rotated on the heating pad at a halfway point to ensure that all sides of bladder were equally exposed to LPS.
Animals and local bladder inflammation model were as described hereinabove in Example 2. The groups were as follows:
In the oral gavage groups, the mice were treated with 100 mg/kg beta-C or 100 mg/kg beta-C in 100 mg/kg methylsulfonylmethane (MSM) by gavage. In groups other than the Healthy Animal Control administered oral beta-C, the administration was 60 minutes prior to LPS exposure. LPS (local) was provided as detailed hereinabove in Example 2. Intravesical MSM was provided similar to as detailed hereinabove in Example 1 for DMSO. Leukocyte adherence, leukocyte rolling and functional capillary density were measured using the techniques as described hereinabove in Example 2. Results were assessed using the statistical methods described hereinabove in Example 2.

The subject of experiment [9] is inflammatory and neuropathic pain. To be noted: mouse models of inflammatory and neuropathic pain; cited from earlier work.
In experiment [10] the test system is LPS-induced cystitis. As to the kind of experiment: Pain assessment scoring (behavioural), Example 5. The experiment is classed as in vivo, female BALB/c mice. The method, then: as §1, §2
Healthy animals were scored behaviourally to set an individual baseline for each specimen. Animals were then anesthetized with isoflurane and given LPS instillation to induce cystitis-like conditions in bladder. After the induction, animals were then woken up and allowed to normally explore/feed themselves in their cage under observation. Changes in behaviour and appearance (i.e. breathing rate, posture, motor activity, eye opening) were then scored again. Each behavioural parameter received a possible maximum score of 10, totaling to a possible maximum of 40. The minimum score possible is a 0, which implies that the parameter is unaffected as a pre-existing condition. Breathing Rate—each decrease in cycle warrants an increase in score. Opening of the eyes—0 complete opening, 5 half opening, 10 fully closed, and 2 and 7 are intermediate positions. Posture—no change is 0, full rounded back OR limp is 10. Intermediate postures gain intermediate scores. Motor activity—activity (exploring, moving, grooming) within 20 seconds. e.g. no movement for 10 seconds (=50%)=5 points; no movement for 2 seconds (=10%)=1 point. The scoring system is based on that reported by Eschalier et al.^37 but has the additional parameter of motor activity.

Experiment [11] deals with LPS-induced cystitis. As to the kind of experiment: Systemic (endotoxemia-induced) bladder inflammation model, intravital microscopy of the bladder. As to conditions: LPS 10 mg/kg i.p.
The conditions of experiment [12]: compared with procaine; cited from earlier work.
[13] abbreviates: healthy animals (no LPS) administered oral Beta-C 100 mg/kg.

Take `CS(C)(=O)=O` [Methylsulfonylmethane]: in [1], the “effective treatment, number of patients suffering from IC” value is 4 out of 6.
On to `CCCCC/C=C\C/C=C\C/C=C\C/C=C\CCCC(=O)NCCO` [AEA, N-arachidonoylethanolamine], for which the “NGF-induced bladder hyper-reflexia and reduction of micturition threshold” value in experiment [2] is on record as “attenuated”.
On to `CCCCCCCCCCCCCCCC(=O)NCCO` [PEA, N-palmitoylethanolamide], for which the “NGF-induced bladder hyper-reflexia and reduction of micturition threshold” value in experiment [2] is on record as “attenuated”.
Consider pentosan polysulfate [PPS], for which the “effect of PPS treatment (proportion of patients)” value in [3] is recorded as “limited to only a quarter of patients”.
For `C[S+](C)[O-]` [DMSO, Dimethyl sulfoxide], in experiment [4], the treatment failure rate entry is given as “high failure rate”. Further, the “leukocyte rolling in bladder venules” value is “did not improve leukocyte rolling” in [5] and “did not show any significant difference when compared to the endotoxemia group” in experiment [6] (FIG. 7). Moreover, the entries for the “leukocyte adhesion in bladder venules” value in experiment [5] and in experiment [6] (FIG. 6) were “retained a high level of activated leukocytes” and “did not significantly decrease leukocyte adherence”, respectively. In addition, the “capillary perfusion quantified through functional capillary density (FCD)” value in experiment [5] is “did improve perfusion, it did not return perfusion to the levels observed in healthy control animals”; in experiment [6] (FIG. 8), “did improve perfusion, it did not return perfusion to the levels observed in healthy control animals”.
Take `C=C1CC/C=C(\C)CC[C@@H]2[C@@H]1CC2(C)C` [Beta-C, beta-caryophyllene]: in [7], the “amount of force applied via electronic von Frey aesthesiometer before a response (withdrawal threshold)” value was “significant improvement in withdrawal threshold”. Also, the “leukocyte adhesion in bladder venules” value in experiment [8] (LPS-induced cystitis, oral gavage 100 mg/kg Beta-C (with or without 100 mg/kg MSM) 60 minutes prior to LPS) is listed as “significant decrease in the number of adherent leukocytes”; in experiment [8] (setting [13]), “did not produce any significant changes in leukocyte adherence”; in experiment [5], “significantly decreased the number of adhering leukocytes back to the level of healthy control animals”; in [5] (listed as BCP), “decrease in leukocyte adherence comparable to groups instilled with various levels of DMSO”; in experiment [11] (100 mg/kg Beta-C injected 15 min after LPS, IVM two hours after treatment, vs LPS, FIG. 1) it was “significantly decreased the number of adhering leukocytes”. Besides, the “capillary perfusion quantified through functional capillary density (FCD)” value in experiment [8] (LPS-induced cystitis, oral gavage 100 mg/kg Beta-C (with or without 100 mg/kg MSM) 60 minutes prior to LPS, listed as BCP) is “no significant differences were observed in the treatment group; also recorded: did not significantly improve FCD”; in experiment [8] (setting [13]) it was “significant improvement in functional capillary density”; in experiment [8] (healthy animals (no LPS) administered oral Beta-C 100 mg/kg, listed as BCP), “significant improvement in FCD”; in [5] it was “highest overall values for FCD”; in experiment [5] (listed as BCP), “restored perfusion to levels observed in healthy control animals; also recorded: significant improvement in FCD”; in experiment [11] (100 mg/kg Beta-C injected, FIG. 3) it was “restored perfusion to levels observed in healthy control animals”. The “leukocyte rolling in bladder venules” value is given as “restored the level of leukocyte levels to that of control animals” in experiment [5] and “did not significantly alter the number of rolling leukocytes” in [11] (100 mg/kg Beta-C injected, vs endotoxemia group, FIG. 2). Further, the “analgesic and anti-inflammatory effects” value in experiment [9] is “analgesic and anti-inflammatory effects”. In [10] (oral BCP 100 mg/kg 60 minutes prior to LPS, vs untreated LPS, FIG. 22), the “behavioural results for eye opening” value is recorded as “significant improvement”. The “behavioural results for motor activity” value in experiment [10] (oral BCP 100 mg/kg 60 minutes prior to LPS, vs untreated LPS, FIG. 23) was “Significant improvements”. The “behavioural results for posture” value in experiment [10] (oral BCP 100 mg/kg 60 minutes prior to LPS, vs untreated LPS, FIG. 24) is recorded as “Significant improvements”. In [10] (oral BCP 100 mg/kg 60 minutes prior to LPS, vs untreated LPS, FIG. 25), the “total composite score of behavioural results (behavioural pain score)” value was “significant reduction in behavioural pain score”. Moreover, the “behavioural results for breathing rate” value in experiment [10] (oral Beta-C 100 mg/kg 60 minutes prior to LPS, T1 vs untreated LPS, FIG. 21) is on record as “significant reduction in breathing rate”. In addition, the local anesthetic actions result in experiment [12] was “dose-dependent local anesthetic actions comparable to procaine”.

The values are drawn from patent publication US10973777B2, “Methods for treatment of interstitial cystitis” (Panag Pharma Inc., priority 2017, dated 2021).
